Source: ChEMBL document CHEMBL3044559, “Synthesis and antidepressant-like action of N-(2-hydroxyethyl) cinnamamide derivatives in mice” (2011)

Columns and labels:
Mus musculus [1] = test: Antidepressant like activity in Mus musculus Kunming (mouse) assessed as reduction of immobility time at 40 mg/kg, po measured during last 4 min of 6 min test by tail suspension test (reference value: 105.7 +/- 10.03 sec); assay type: functional
Mus musculus [2] = test: Antidepressant like activity in Mus musculus Kunming (mouse) assessed as reduction of immobility time at 40 mg/kg, po measured during last 4 min of 6 min test by forced swimming test (reference value: 183.3 +/- 12.67 sec); assay type: functional

COc1cc(/C=C/C(=O)NCCO)ccc1O
Time (Mus musculus [1]): 45 s | Time (Mus musculus [2]): 55 s

COc1ccc(/C=C/C(=O)NCCO)c(OC)c1
Time (Mus musculus [1]): 39.67 s | Time (Mus musculus [2]): 143.5 s

COc1cc(/C=C/C(=O)NCCO)cc(OC)c1OC
Time (Mus musculus [1]): 76.33 s | Time (Mus musculus [2]): 165.5 s

O=C(/C=C/c1ccc(O)cc1)NCCO
Time (Mus musculus [1]): 71 s | Time (Mus musculus [2]): 133.3 s

O=C(/C=C/c1cccc(O)c1)NCCO
Time (Mus musculus [1]): 54 s | Time (Mus musculus [2]): 102.8 s

COc1cccc(/C=C/C(=O)NCCO)c1
Time (Mus musculus [1]): 43.33 s | Time (Mus musculus [2]): 141 s

O=C(/C=C/c1ccccc1)NCCO [IDROCILAMIDE]
Time (Mus musculus [1]): 25 s | Time (Mus musculus [2]): 101.2 s

CN(C)c1ccc(/C=C/C(=O)NCCO)cc1
Time (Mus musculus [1]): 64.67 s | Time (Mus musculus [2]): 105.5 s

O=C(/C=C/c1ccc(F)cc1)NCCO
Time (Mus musculus [1]): 75 s | Time (Mus musculus [2]): 130.8 s

O=C(/C=C/c1ccccc1O)NCCO
Time (Mus musculus [1]): 44.83 s | Time (Mus musculus [2]): 146.7 s

O=C(/C=C/c1ccc(Br)cc1)NCCO
Time (Mus musculus [1]): 57 s | Time (Mus musculus [2]): 119.7 s

COc1ccc(/C=C/C(=O)NCCO)cc1
Time (Mus musculus [1]): 31.33 s | Time (Mus musculus [2]): 167.5 s

COc1ccc(/C=C/C(=O)NCCO)cc1OC
Time (Mus musculus [1]): 39.33 s | Time (Mus musculus [2]): 157.8 s

COc1ccccc1/C=C/C(=O)NCCO
Time (Mus musculus [1]): 38.67 s | Time (Mus musculus [2]): 159.1 s

CNCCC(Oc1ccc(C(F)(F)F)cc1)c1ccccc1 (stereo unspecified) [FLUOXETINE]
Time (Mus musculus [1]): 14.17 s

O=C(/C=C/c1ccc(Cl)cc1)NCCO
Time (Mus musculus [1]): 76.67 s | Time (Mus musculus [2]): 168 s
